Results on 10 compounds are retold here after paper PMC9828254, “Identification of Dihydroorotate Dehydrogenase Inhibitors Using the Cell Painting Assay” (Chembiochem, 2022).

Assay [1] relates to U2OS cells. Kind of assay: Cell Painting assay (CPA), morphological fingerprints. The format is cell-based, human. As to conditions: for biosimilarity (BioSim) to IPP/CNRS-A017 / biosimilarity (BioSim) to brequinar: concentration not given, similar if biosimilarity >75 %; for BioSim [%] (biosimilarity) to brequinar: reference fingerprint brequinar 10 μM; for BioSim [%] (biosimilarity) to IPP/CNRS-A017: reference fingerprint IPP/CNRS-A017 5 μM. Here is the method:
Therefore, the definition of bioactivity clusters is crucial for proper hypothesis generation for uncharacterized small molecules that are subjected to the CPA and requires thorough inspection of the CPA fingerprints of reference compounds.[[2b], [9], [10]] […] For the CPA, human osteosarcoma U2OS cells were treated with compounds for 20 h prior to detection of cellular components and compartments (DNA, RNA, mitochondria, Golgi, endoplasmic reticulum (ER), actin, plasma membrane) using six different dyes. Morphological features are extracted and differences to the control (cells that were treated with DMSO) are expressed as Z scores. The CPA fingerprints used in this study compile Z scores for 579 features. […] Myxothiazol is an inhibitor of complex III of the mitochondrial electron transport chain.[15] Whereas de novo biosynthesis of pyrimidines takes place in the cytosol, DHODH is the only enzyme of the pyrimidine biosynthesis pathway that is localized at the inner mitochondrial membrane.[16] DHODH catalyzes the oxidation of dihydroorotate (DHO) to orotate by transferring electrons from DHO via the cofactor FMN to ubiquinone to yield ubiquinol. Electrons from ubiquinol are transferred further to complex III (cytochrome b,c1 complex), thereby recycling […] that is required for DHODH activity. In this way, pyrimidine biosynthesis is tightly coupled to the activity of complex III, which ensures that pyrimidine nucleotides and, thus, DNA and RNA are synthesized only if cells are supplied with sufficient amount of ATP via the mitochondrial respiratory chain. Alternatively, cells can replenish their pyrimidine pools via the salvage pathway by uptake of circulating pyrimidines.[5] Whereas proliferating cells rely on de novo pyrimidine biosynthesis to meet the high demand for nucleotides, the salvage pathway is used by resting and fully differentiated cells.[5]
The cell painting assay: The Cell Painting assay[25] was performed as described previously.[[9a], [26]] U2OS medium (5 μL) was added to each well of a 384‐well plate (PerkinElmer CellCarrier‐384 Ultra) prior to addition of 1,600 U2OS cells per well and incubation for 4 h at 37 °C. Standard stock concentration of compounds was 10 mM. […] Compounds were added to the cells using the Echo 520 acoustic dispenser (Labcyte) followed by incubation for 20 h at 37 °C. Subsequently, mitochondria were stained with 0.1 μg/μL Mito Tracker Deep Red for 30 min at 37 °C in the dark. Cells were fixed using 3.7 % formaldehyde (in PBS) for 20 min at 37 °C in the dark. Cells were washed three times using PBS before permeabilization using Triton X‐100 for 15 min 37 °C in the dark. After three additional washing steps, 25 μL of a staining solution were added to each well, which contained 1 % BSA, 5 μL/mL Phalloidin (Alexa594 conjugate, Thermo Fisher Scientific, A12381), 25 μg/mL Concanavalin A (Alexa488 conjugate, Thermo Fisher Scientific, Cat. No. C11252), 5 μg/mL Hoechst 33342 (Sigma, Cat. No. B2261‐25 mg), 1.5 μg/mL WGA‐Alexa594 conjugate (Thermo Fisher Scientific, Cat. No. W11262) and 1.5 μM SYTO 14 solution (Thermo Fisher Scientific, Cat. No. S7576). Plates were incubated for 30 min at 37 °C in the dark and washed three times with PBS. Plates were sealed and centrifuged for 1 min at 500 rpm. The plates were prepared in triplicates with shifted layouts to reduce plate effects and imaged using a Micro XL High‐Content Screening System (Molecular Devices) in 5 channels (DAPI: Ex350‐400/Em410‐480; FITC: Ex470‐500/Em510‐540; Spectrum Gold: Ex520‐545/Em560‐585; TxRed: Ex535‐585/Em600‐650; Cy5: Ex605‐650/Em670‐715) with 9 sites per well and 20× magnification (binning 2).
Generated images were processed with the CellProfiler package[27] (https://cellprofiler.org, version 3.0.0) on a computing cluster of the Max Planck Society to extract 1716 cell features. The data was then further aggregated as medians per well (9 sites→1 well), then over the three replicates.

Assay [2] deals with T1, Human DHODH (Homo sapiens, UniProt Q02127).
T1 construct: 40 μL of purified DHODH (aa31–395, final concentration: 1.25 μg/mL); made in house; host or cells: E. coli BL21 (DE3)
T1 sequence (Q02127 31-395): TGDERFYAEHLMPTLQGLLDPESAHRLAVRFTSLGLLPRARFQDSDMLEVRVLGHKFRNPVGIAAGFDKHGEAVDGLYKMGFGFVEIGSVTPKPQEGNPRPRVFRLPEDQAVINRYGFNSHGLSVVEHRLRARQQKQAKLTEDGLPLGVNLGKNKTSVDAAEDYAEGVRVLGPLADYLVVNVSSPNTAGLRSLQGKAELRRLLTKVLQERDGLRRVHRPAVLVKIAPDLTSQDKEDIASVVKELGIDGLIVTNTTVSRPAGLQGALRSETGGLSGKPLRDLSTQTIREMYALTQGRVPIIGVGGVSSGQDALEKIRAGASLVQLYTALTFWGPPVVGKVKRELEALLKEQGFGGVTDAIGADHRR
Kind of assay: DHODH enzymatic assay (DCPIP reduction). The format is biochemical. As to conditions: for inhibition at 10 µM: 30 min preincubation, read-out: reduction (inhibition) of in vitro DHODH activity. Here is the method:
Expression was induced by adding 0.8 mM IPTG (AppliChem, A1008,0025) and temperature was reduced to 28 °C for 6 hours. […] The clarified supernatant was loaded to the column and washed with PBS (1 mL/min) for 2 h, followed by elution with 10 mM L‐glutathione (Sigma Aldrich, G4251) in PBS. The GST tag was not removed for further analysis. Factions containing hDHODH‐GST protein were pooled, concentrated with centrifugal filters (Ultra‐50 K, Merck Millipore, UFC905096) and shock‐frozen for further analysis. Protein concentration was determined by Bradford measurement.
DHODH enzymatic assay: Enzymatic activity of DHODH was assessed by monitoring the reduction of 2,6‐dichlorophenolinindophenol (DCPIP), which is coupled to the oxidation of dihydroorotate by DHODH. […] The reaction was initiated by adding 50 μL mastermix (2 mM L‐dihydroorotic acid, 0.2 mM decylubiquonone, 0.12 mM 2,6 dichlorphenolindophenol (DCPIP) in assay buffer). DCPIP reduction was monitored at λ=600 nm using Tecan Spark plate reader for 20 min.

In assay [3] the test system is HCT116 cells. The assay is described as follows: DHODH rescue assay / cell growth (cell confluence, IncuCyte). It is filed as cell-based. As to conditions: for rescue of cell growth by orotate (OA): 1.5 mM OA; for rescue of cell growth by uridine: 100 μM uridine, 96 h; for influence on cell growth (cell confluence): monitored over 96 h. Here is the method: Figure 3 Influence of compounds on cell growth and DHODH activity. (A–C) HCT116 cells were treated with the compounds or DMSO as a control in presence or absence of 100 μM uridine. Cell confluence as a measure of cell growth was monitored over 96 h using IncuCyte ZOOM/S3. (A) Brequinar (BRQ). (B) Myxothiazol (MXT). […] (D–E) In vitro DHODH activity. […] (F) Influence of compound 7 on complex III activity. All data are mean values of three biological replicates (n=3)±SD.
(§1) DHODH rescue assay: 2,000 HCT116 or U2OS cells per well were seeded in a clear 96‐well plate and incubated as described above overnight prior to treatment. The next day, the medium was replaced by fresh compound or DMSO containing medium supplemented with control solvent or uridine (100 μM), OA (1.5 mM) or DHO (1.5 mM). Cell growth was monitored every 2 h for a total of 96 h after treatment start using an IncuCyte S3 (Essen BioScience). The cell confluence was quantified as a measure of cell growth using the IncuCyte S3 software (Essen BioScience).

The subject of assay [4] is U2OS cells. On the set-up: method as in earlier work. To be noted: ref 9b; cited from earlier work.
Assay [5] deals with U2OS cells. As to conditions: 100 μM uridine. Here is the method:
as §1

Where [6] appears, read: Homo sapiens, U2OS, Conc 10 μM, 20 h, read-out: Cell count [%].
[7] abbreviates: 96 h, 2, 6, 7 at 10 μM, 4 at 30 μM.
[8] abbreviates: Conc 10 μM, 20 h, percentage of significantly altered features.
Setting [9] is: complex III inhibitors, Figure S8, concentration not given.

“Also recorded” adds a separate entry of the source. Some results are limits rather than exact numbers.

For `COc1ccc2[nH]c3c(c2c1)CCO[C@]31CC[C@@]2(Oc3c(Cl)c(OC)cc(OC)c3C2=O)[C@H](C)C1` [Compound 3], the viability at 3 µM in assay [1] (Homo sapiens, U2OS, Conc 3 μM, 20 h, read-out: Cell count [%]) was determined as 94%. Moreover, the inhibition (as a rule, the relative decrease from the control value, in per cent) at 10 µM in assay [2] (10 μM compound) is greater than 50%.
Consider `Cc1c(Oc2ccc(F)cc2)c(OC(C)C)nn1-c1ccc(C2CC2)cn1` [Compound 1], for which the “Ind [%] (induction)” value in assay [1] (Conc 5 μM, 20 h) worked out at 10%. Besides, the viability at 5 µM in assay [1] (Homo sapiens, U2OS, Conc 5 μM, 20 h, read-out: Cell count [%]) stood at 105%. In assay [1], the “biosimilarity (BioSim) to IPP/CNRS-A017” value was “not biosimilar” and the “biosimilarity (BioSim) to brequinar” value is recorded as “not biosimilar”. Also, the “BioSim [%] (biosimilarity) to brequinar” value in assay [1] (compound Conc 5 μM) is listed as 39%.
Turning to `CN1C(=O)[C@@]2(C(=O)N(Cc3ccncc3)c3ccc(OC(F)(F)F)cc32)c2ccccc21` [Compound 2], in assay [1] (setting [6]), the viability at 10 µM was found to be 90%. For the same compound, in assay [2] (10 μM compound), the “influence on in vitro DHODH activity, in words” value (“influence … in words” for short) was “only moderately inhibited” and the inhibition at 10 µM lay in the range of 27 to 44%. Besides, the “rescue of cell growth by orotate (OA)” value in assay [3] (setting [7]) is given as “relieved”.
For `COc1cc(OC)c2c(c1Cl)O[C@@]1(CC[C@@]3(C[C@H]1C)OCCc1c3[nH]c3ccc(C)cc13)C2=O` [Compound 4], in that order: 81%, “only moderately inhibited”, 27 to 44% and “relieved”.
On to `NC(=O)c1[nH]nc([C@@H]2O[C@H](CO)[C@@H](O)[C@H]2O)c1O` [Pyrazofurin, pyrazofurin], for which, in assay [1] (setting [6]), the viability at 10 µM worked out at 97%. For the same compound, in assay [1], the “biosimilarity (BioSim) to IPP/CNRS-A017” value is listed as “high biosimilarity” and the “biosimilarity (BioSim) to brequinar” value is given as “high biosimilarity”. Also, in assay [3], the “rescue of cell growth by uridine” value is on record as “fully rescued” and the “influence on cell growth (cell confluence)” value (from here on “influence on cell growth”) is recorded as “suppressed the growth”.
On to `Brc1ccc2[nH]c3c(c2c1)CCOC31CCCCC1` [Compound 6], for which, in assay [1] (setting [6]), the viability at 10 µM is 88%. In addition, in assay [1] (compound Conc 10 μM), the “BioSim [%] (biosimilarity) to IPP/CNRS-A017” value is 87% and the “BioSim [%] (biosimilarity) to brequinar” value worked out at 84%. Besides, in assay [2] (10 μM compound), the “influence … in words” value is “only moderately inhibited” and the inhibition at 10 µM lay within 27 to 44%. In addition, in assay [4], the “CPA fingerprint similarity to the iron chelator deferoxamine” value is 81% and the “cells in S phase (analysis of CPA fingerprints)” value was “accumulation of cells in S phase; also recorded: increase in the percentage of cells in S phase”. Further, the “rescue of cell growth by orotate (OA)” value in assay [3] (setting [7]) was “relieved”.
In the case of `CO/C(=C/C(N)=O)[C@H](C)[C@H](/C=C/c1csc(-c2csc([C@@H](C)/C=C/C=C/C(C)C)n2)n1)OC` [Myxothiazol, myxothiazol], the “Cell count [%]” value in assay [1] (Conc 10 μM, 20 h) is recorded as 73%. Moreover, in assay [1] (setting [8]), the “Ind [%] (induction)” value is recorded as 46%. Also, in assay [1], the “biosimilarity (BioSim) to brequinar” value was “biosimilar”. Moreover, in assay [2] (setting [9]), the “influence … in words” value is given as “do not inhibit”. Moreover, the “rescue of cell growth by uridine” value in assay [3] is “only partly restored normal cell growth”. The figures for the “influence on cell growth” value in assay [3] and in assay [3] (listed as myxothiazol) were “suppressed the growth” and “growth arrest”, respectively.
For `CCCCCC[C@H]1C(=O)O[C@H](C)[C@H](NC(=O)c2cccc(NC=O)c2O)C(=O)O[C@@H](C)[C@@H]1OC(=O)CC(C)C` [antimycin A], the “biosimilarity (BioSim) to brequinar” value in assay [1] is given as “biosimilar”. In addition, in assay [2] (setting [9]), the “influence … in words” value is recorded as “do not inhibit”. Besides, the “influence on cell growth” value in assay [3] was “growth arrest”.
In the case of `O=C(Nc1cccnc1)N1Cc2cccc(c2)CN(S(=O)(=O)C(F)(F)F)CC/C=C/C[C@@H]1CO` [Compound 5], the viability at 10 µM in assay [1] (setting [6]) is 82%. In assay [1] (compound Conc 10 μM), the “BioSim [%] (biosimilarity) to IPP/CNRS-A017” value is 87% and the “BioSim [%] (biosimilarity) to brequinar” value was 84%. The inhibition at 10 µM in assay [2] (10 μM compound) is greater than 50%. Besides, the concentration for half-maximal inhibition (IC50) (in general, the concentration that gives 50% inhibition) in assay [2] (dose-response, n=3 ± SD, read-out: IC50 for inhibition of DHODH) is 6.2 ± 3 µM. For the same compound, in assay [4], the “CPA fingerprint similarity to the iron chelator deferoxamine” value is reported as 80% and the “cells in S phase (analysis of CPA fingerprints)” value was “accumulation of cells in S phase; also recorded: increase in the percentage of cells in S phase”.
For the compound `Cc1c(-c2ccc(-c3ccccc3F)cc2)nc2ccc(F)cc2c1C(=O)O` [Brequinar, brequinar], the “Ind [%] (induction)” value in assay [1] (setting [8]) worked out at 36%. In addition, the viability at 10 µM in assay [1] (setting [6]) was 89%. Further, in assay [1] (full fingerprints, Figure S3A and S3B), the “biosimilarity to the fingerprint of methotrexate” value is recorded as “lack of biosimilarity”. In assay [1] (reference fingerprint myxothiazol 10 μM, compound Conc 10 μM), the “BioSim [%] (biosimilarity) to myxothiazol” value is reported as 84%. For the same compound, the “rescue of cell growth by uridine” value in assay [5] is given as “completely rescue”; in assay [3], “completely rescue; also recorded: full cell growth recovery”. Moreover, the “rescue of cell growth by dihydroorotate (DHO)” value in assay [3] (1.5 mM DHO, 96 h, 2, 6, 7 at 10 μM, 4 at 30 μM) was “could not restore”. Also, the “rescue of cell growth by orotate (OA)” value in assay [3] (setting [7]) is recorded as “rescued normal cell proliferation”.
